{
  "source": "paper PMC11144275",
  "about": "(The Lancet. Infectious diseases, 2019)",
  "key": {"[1]": {"test_system": "EBOV-Ituri", "experiment": "microbe, parasite or virus in culture", "type": "cell-based, Ebola virus"}, "[2]": {"test_system": "EBOV-Makona", "experiment": "microbe, parasite or virus in culture", "type": "cell-based, Ebola virus"}, "[3]": {"test_system": "Huh-7 cells"}},
  "note": "Structures can show the parent of a compound that is named as a salt.",
  "data": [
    {"smiles": "Nc1ccn([C@@H]2O[C@H](CO)[C@@H](O)[C@H]2F)c(=O)n1", "note": "[2′-deoxy-2′-fluorocytidine]", "values": [
      {"measurement": "EBOV-Ituri Selectivity index", "setting": "[1]", "value": ">14"},
      {"measurement": "EBOV-Makona Selectivity index", "setting": "[2]", "value": ">16"}
    ]},
    {"smiles": "NCC(=O)Nc1ccc(-n2nc(C(F)(F)F)cc2-c2ccc3c(ccc4ccccc43)c2)cc1", "note": "[AR-12]", "values": [
      {"measurement": "CC50", "setting": "[3]", "value": "3·67 (0·14) μM"}
    ]},
    {"smiles": "CCN(CC)CCOc1ccc(C(=C(Cl)c2ccccc2)c2ccccc2)cc1", "note": "[Clomifene citrate]", "values": [
      {"measurement": "CC50", "setting": "[3]", "value": "8·43 (1·08) μM"}
    ]},
    {"smiles": "COc1c(C)c2c(c(O)c1C/C=C(\\C)CCC(=O)OCCN1CCOCC1)C(=O)OC2", "note": "[Mycophenolate mofetil]", "values": [
      {"measurement": "EBOV-Ituri Selectivity index", "setting": "[1]", "value": 89},
      {"measurement": "CC50", "setting": "[3]", "value": "14·2 (4·3) μM"},
      {"measurement": "EBOV-Makona Selectivity index", "setting": "[2]", "value": 97}
    ]},
    {"smiles": "CCC(CC)COC(=O)[C@H](C)N[P@](=O)(OC[C@H]1O[C@@](C#N)(c2ccc3c(N)ncnn23)[C@H](O)[C@@H]1O)Oc1ccccc1", "note": "[Remdesivir]", "values": [
      {"measurement": "EC50", "setting": "[1]; Zaire ebolavirus, Huh-7, read-out: EC50 EBOV-Ituri", "value": 13, "unit": "nM"},
      {"measurement": "CC50", "setting": "[3]", "value": "3·63 (2·88) μM"},
      {"measurement": "EC50", "setting": "[2]; Zaire ebolavirus, Huh-7, read-out: EC50 EBOV-Makona", "value": 12, "unit": "nM"}
    ]},
    {"smiles": "NC(=O)c1ncn([C@@H]2O[C@H](CO)[C@@H](O)[C@H]2O)n1", "note": "[Ribavirin]", "values": [
      {"measurement": "EBOV-Ituri Selectivity index", "setting": "[1]", "value": ">3"},
      {"measurement": "EBOV-Makona Selectivity index", "setting": "[2]", "value": ">4"}
    ]},
    {"smiles": "CC/C(=C(\\c1ccccc1)c1ccc(OCCN(C)C)cc1)c1ccccc1", "note": "[Tamoxifen]", "values": [
      {"measurement": "CC50", "setting": "[3]", "value": "16·29 (12·05) μM"}
    ]},
    {"smiles": "CN(C)CCOc1ccc(/C(=C(/CCCl)c2ccccc2)c2ccccc2)cc1", "note": "[Toremifene citrate]", "values": [
      {"measurement": "EBOV-Ituri Selectivity index", "setting": "[1]", "value": ">625"},
      {"measurement": "EBOV-Makona Selectivity index", "setting": "[2]", "value": ">250"}
    ]}
  ]
}
